These are literature values, as cited in paper PMC8356818 (Chemical Science, 2021).

Assay in data set [1]: not given
The source holds these as a separate data set.

The conditions of data set [2]: H4qp2 ligand, 25 °C.
The conditions of data set [3]: direct stopped-flow measurements.

With Mn^IIBr8TM-4-PyP^4+, the “estimated log kcat if the catalyst were fully intact” value was “exceed 8.67”. Also, the log kcat (determined by the cytochrome c assay) is 8.34. The “Mn estimated to be lost (release of free manganese)” value in data set [1] (neutral pH) is “approximately 30%”.
With `Oc1ccc(O)c(CN(CCN(Cc2ccccn2)Cc2cc(O)ccc2O)Cc2ccccn2)c1` [Complex H4qp2, N,N′-bis(2,5-dihydroxybenzyl)-N,N′-bis(2-pyridinylmethyl)-1,2-ethanediamine], in data set [2] (KL1 = [(H5qp2)^+][H^+]/[(H6qp2)^2+]), the pKL1 is 4.47 (±0.08). Further, the pKL2 in data set [2] (KL2 = [(H4qp2)][H^+]/[(H5qp2)^+]) is listed as 7.18 (±0.03).
For the compound `C[C@@H]1N[C@@H]2CCCC[C@H]2NCCN[C@@H]2CCCC[C@H]2N[C@@H](C)c2cccc1n2.[Cl-].[Cl-].[Mn+2]` [Complex M40401], in data set [3], the catalytic rate entry was “approximately 1.5 × 10^9 M^−1 s^−1”. Further, the pMn in data set [1] (stability in water) is on record as 4.7.
